The values that follow come from patent US8148391B2 (Cephalon, Inc., priority 2006, dated 2012).

Test [1] concerns the target T1, baculovirus-expressed ALK (Homo sapiens, UniProt Q9UM73).
T1 construct: host or cells: baculovirus expression system
Nature of the test: ALK Kinase Assay (ELISA-type, time-resolved fluorescence). Format: biochemical. The conditions noted are these: ALK kinase inhibition, 1 μM ATP; read-out: ALK Activity. In a few lines:
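Wells were coated with phospholipase C-γ at 10 μg/mL in Tris-buffered saline. Adding 30 ng/ml enzyme started the reaction, which ran at 37° C for 15 minutes before Eu-N1 PT66 antibody detection. Percent inhibition versus log10 concentration gave IC50 by variable-slope fit.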
On the technique in general: An ELISA detects its analyte on a solid surface through an enzyme-linked reagent.

In test [2] the target is T2, c-Met (cytoplasmic domain) (Homo sapiens, UniProt P08581).
T2 construct: 10 ng/mL c-Met (cytoplasmic domain, Invitrogen Corporation #PV3143); purchased Invitrogen Corporation PV3143
T2 sequence (P08581 956-1390 limits assumed): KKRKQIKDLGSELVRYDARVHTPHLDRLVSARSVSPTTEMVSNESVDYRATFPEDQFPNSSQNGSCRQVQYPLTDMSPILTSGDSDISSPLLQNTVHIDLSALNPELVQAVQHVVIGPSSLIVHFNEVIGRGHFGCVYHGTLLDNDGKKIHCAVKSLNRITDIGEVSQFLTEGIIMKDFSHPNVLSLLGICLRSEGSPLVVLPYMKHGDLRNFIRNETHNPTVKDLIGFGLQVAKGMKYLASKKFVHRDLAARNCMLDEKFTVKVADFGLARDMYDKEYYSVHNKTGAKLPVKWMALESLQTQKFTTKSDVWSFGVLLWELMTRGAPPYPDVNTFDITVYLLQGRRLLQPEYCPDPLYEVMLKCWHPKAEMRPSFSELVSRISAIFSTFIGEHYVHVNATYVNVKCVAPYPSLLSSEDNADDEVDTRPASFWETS
Kind of test: c-Met Kinase Assay (same methods as for ALK, with modifications). The conditions noted are these: c-Met kinase inhibition, 1 μM ATP; read-out: cMet Activity. It is filed as biochemical. In a few lines: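 Steps: coat wells with PLC-γ (10 μg/mL, Tris-buffered saline); add 10 ng/mL c-Met cytoplasmic domain to initiate; incubate 15 min, 37° C; detect phosphoproduct via Eu-N1 PT66 antibody.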

T1 sequence (Q9UM73 19-1620): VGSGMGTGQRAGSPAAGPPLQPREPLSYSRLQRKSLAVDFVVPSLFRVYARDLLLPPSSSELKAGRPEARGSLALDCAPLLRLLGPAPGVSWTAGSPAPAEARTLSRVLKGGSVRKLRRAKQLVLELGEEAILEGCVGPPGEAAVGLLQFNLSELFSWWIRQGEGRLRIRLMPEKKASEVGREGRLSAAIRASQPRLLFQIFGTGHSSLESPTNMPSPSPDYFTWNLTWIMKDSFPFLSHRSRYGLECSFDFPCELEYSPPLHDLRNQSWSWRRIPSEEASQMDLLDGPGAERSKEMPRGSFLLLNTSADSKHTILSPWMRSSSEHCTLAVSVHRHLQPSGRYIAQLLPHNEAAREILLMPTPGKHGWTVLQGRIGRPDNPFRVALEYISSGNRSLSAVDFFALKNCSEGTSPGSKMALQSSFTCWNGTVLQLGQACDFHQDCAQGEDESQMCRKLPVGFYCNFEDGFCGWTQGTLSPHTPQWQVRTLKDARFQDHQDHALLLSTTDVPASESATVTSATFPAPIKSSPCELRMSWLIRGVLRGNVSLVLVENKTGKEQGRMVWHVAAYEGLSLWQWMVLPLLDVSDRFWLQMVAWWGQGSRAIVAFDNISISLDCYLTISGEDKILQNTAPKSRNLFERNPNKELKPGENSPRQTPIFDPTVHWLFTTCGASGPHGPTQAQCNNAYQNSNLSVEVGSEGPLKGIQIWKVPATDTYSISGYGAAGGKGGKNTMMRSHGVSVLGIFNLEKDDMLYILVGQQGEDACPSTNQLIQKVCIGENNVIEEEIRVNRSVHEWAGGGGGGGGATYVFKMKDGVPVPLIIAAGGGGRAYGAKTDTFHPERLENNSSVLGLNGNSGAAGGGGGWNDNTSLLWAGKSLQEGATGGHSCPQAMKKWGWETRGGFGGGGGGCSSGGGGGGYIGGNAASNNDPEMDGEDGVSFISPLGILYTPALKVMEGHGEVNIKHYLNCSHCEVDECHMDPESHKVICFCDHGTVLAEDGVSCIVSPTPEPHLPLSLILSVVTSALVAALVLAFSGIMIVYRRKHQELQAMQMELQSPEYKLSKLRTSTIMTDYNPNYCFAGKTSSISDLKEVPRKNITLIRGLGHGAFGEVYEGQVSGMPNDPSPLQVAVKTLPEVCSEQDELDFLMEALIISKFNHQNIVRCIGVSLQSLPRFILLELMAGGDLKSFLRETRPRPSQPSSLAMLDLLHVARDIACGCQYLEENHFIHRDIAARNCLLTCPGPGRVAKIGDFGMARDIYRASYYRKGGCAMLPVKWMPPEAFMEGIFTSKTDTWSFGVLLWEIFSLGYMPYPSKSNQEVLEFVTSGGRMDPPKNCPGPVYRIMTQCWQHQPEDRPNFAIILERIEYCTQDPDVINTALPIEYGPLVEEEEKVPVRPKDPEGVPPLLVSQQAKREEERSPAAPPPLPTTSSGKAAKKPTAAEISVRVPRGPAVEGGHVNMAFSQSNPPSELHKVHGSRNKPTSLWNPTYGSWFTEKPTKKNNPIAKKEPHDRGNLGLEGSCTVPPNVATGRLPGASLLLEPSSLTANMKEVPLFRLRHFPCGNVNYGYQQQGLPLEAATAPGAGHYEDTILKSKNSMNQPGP

Consider `COc1cc2c(cc1Nc1ncc(Cl)c(Nc3ccccc3S(=O)(=O)N(C)C)n1)CCN(CCOP(=O)(O)O)CC2` [Example 1545, Phosphoric acid mono-(2-{7-[5-chloro-4-(2-dimethylsulfamoyl-phenylamino)-pyrimidin-2-ylamino]-8-methoxy-1,2,4,5-tetrahydro-3-benzazepin-3-yl}-ethyl)ester], for which the results for the IC50 in test [1] and in test [2] were < 100 nM and 1000 to 10000 nM, respectively.

As to `CCC(=O)OCCN1CCc2cc(Nc3ncc(Cl)c(Nc4ccccc4S(=O)(=O)N(C)C)n3)c(OC)cc2CC1` [Example 1546, Propionic acid 2-{7-[5-chloro-4-(2-dimethylsulfamoyl-phenylamino)-pyrimidin-2-ylamino]-8-methoxy-1,2,4,5-tetrahydro-3-benzazepin-3-yl}-ethyl ester], the IC50 in test [1] was < 100 nM; in test [2] it was 1000 to 10000 nM.

For `COc1cc2c(cc1Nc1ncc(Cl)c(Nc3ccccc3S(=O)(=O)N(C)C)n1)CCN(CC(C)O)CC2` (stereo not drawn) [Example 1547, 2-{5-Chloro-2-[3-(2-hydroxy-propyl)-8-methoxy-2,3,4,5-tetrahydro-1H-3-benzazepin-7-ylamino]-pyrimidin-4-ylamino}-N,N-dimethyl-benzenesulfonamide], the values for the IC50 in test [1] and in test [2] were < 100 nM and 1000 to 10000 nM, respectively.

Consider `COc1cc2c(cc1Nc1ncc(Cl)c(N[C@H]3[C@@H](C(N)=O)[C@@H]4C=C[C@H]3C4)n1)CCN(CC(C)O)CC2` (stereo partly drawn) [Example 1548, (1S,2S,3R,4R)-3-{5-Chloro-2-[3-(2-hydroxy-propyl)-8-methoxy-2,3,4,5-tetrahydro-1H-3-benzazepin-7-ylamino]-pyrimidin-4-ylamino}-bicyclo[2.2.1]hept-5-ene-2-carboxylic acid amide], for which the results for the IC50 in test [1] and in test [2] were < 100 nM and > 10000 nM, respectively.

Regarding `COCCOC(=O)c1ccccc1Nc1nc(Nc2cc3c(cc2OC)CCN(CCO)CC3)ncc1Cl` [Example 1549, 2-{5-Chloro-2-[3-(2-hydroxy-ethyl)-8-methoxy-2,3,4,5-tetrahydro-1H-3-benzazepin-7-ylamino]-pyrimidin-4-ylamino}-benzoic acid 2-methoxy-ethyl ester], the values for the IC50 in test [1] and in test [2] were < 100 nM and > 10000 nM, respectively.

On to `COCCOC(=O)c1ccccc1Nc1nc(Nc2cc3c(cc2OC)CCN(CC(C)O)CC3)ncc1Cl` (stereo not drawn) [Example 1550, 2-{5-Chloro-2-[3-(2-hydroxy-propyl)-8-methoxy-2,3,4,5-tetrahydro-1H-3-benzazepin-7-ylamino]-pyrimidin-4-ylamino}-benzoic acid 2-methoxy-ethyl ester], for which the IC50 in test [1] is < 100 nM; in test [2], > 10000 nM.

`COc1cc2c(cc1Nc1ncc(Cl)c(Nc3ccccc3S(=O)(=O)N3CCC(O)C3)n1)CCN(CCO)CC2` (stereo not drawn) [Example 1551, 1-(2-{5-Chloro-2-[3-(2-hydroxy-ethyl)-8-methoxy-2,3,4,5-tetrahydro-1H-3-benzazepin-7-ylamino]-pyrimidin-4-ylamino}-benzenesulfonyl)-pyrrolidin-3-ol]: the IC50 in test [1] is < 100 nM; in test [2], 100 to 1000 nM.

As for `COc1cc2c(cc1Nc1ncc(Cl)c(Nc3ccccc3S(=O)(=O)N3CCC(O)C3)n1)CCN(CC(C)O)CC2` (stereo not drawn) [Example 1552, 1-(2-{5-Chloro-2-[3-(2-hydroxy-propyl)-8-methoxy-2,3,4,5-tetrahydro-1H-3-benzazepin-7-ylamino]-pyrimidin-4-ylamino}-benzenesulfonyl)-pyrrolidin-3-ol], the IC50 in test [1] was < 100 nM; in test [2] it was 1000 to 10000 nM.

With `COc1cc2c(cc1Nc1ncc(Cl)c(Nc3ccccc3S(=O)(=O)N3CCCC3)n1)CCN(CC(C)O)CC2` (stereo not drawn) [Example 1553, 1-(7-{5-Chloro-4-[2-(pyrrolidine-1-sulfonyl)-phenylamino]-pyrimidin-2-ylamino}-8-methoxy-1,2,4,5-tetrahydro-3-benzazepin-3-yl)-propan-2-ol], the IC50 was < 100 nM in test [1] and 100 to 1000 nM in test [2].

Turning to `COc1cc2c(cc1Nc1ncc(Cl)c(Nc3ccccc3S(=O)(=O)N3CC[C@@H](O)C3)n1)CCN(C[C@H](C)O)CC2` [Example 1554, (R)-1-(2-{5-Chloro-2-[3-((S)-2-hydroxy-propyl)-8-methoxy-2,3,4,5-tetrahydro-1H-3-benzazepin-7-ylamino]-pyrimidin-4-ylamino}-benzenesulfonyl)-pyrrolidin-3-ol], the IC50 in test [1] is < 100 nM; in test [2] it was 100 to 1000 nM.

As to `COc1cc2c(cc1Nc1ncc(Cl)c(Nc3ccccc3S(=O)(=O)N3CC[C@H](O)C3)n1)CCN(C[C@H](C)O)CC2` [Example 1555, (S)-1-(2-{5-Chloro-2-[3-((S)-2-hydroxy-propyl)-8-methoxy-2,3,4,5-tetrahydro-1H-3-benzazepin-7-ylamino]-pyrimidin-4-ylamino}-benzenesulfonyl)-pyrrolidin-3-ol], the results for the IC50 in test [1] and in test [2] were < 100 nM and 100 to 1000 nM, respectively.

Take `COc1cc2c(cc1Nc1ncc(Cl)c(Nc3ccccc3S(=O)(=O)N3CC[C@H](O)C3)n1)CCN(C[C@@H](C)O)CC2` [Example 1556, (S)-1-(2-{5-Chloro-2-[3-((R)-2-hydroxy-propyl)-8-methoxy-2,3,4,5-tetrahydro-1H-3-benzazepin-7-ylamino]-pyrimidin-4-ylamino}-benzenesulfonyl)-pyrrolidin-3-ol]: the IC50 is < 100 nM in test [1] and 1000 to 10000 nM in test [2].

On to `COc1cc2c(cc1Nc1ncc(Cl)c(Nc3ccccc3S(=O)(=O)N3CC[C@@H](O)C3)n1)CCN(C[C@@H](C)O)CC2` [Example 1557, (R)-1-(2-{5-Chloro-2-[3-((R)-2-hydroxy-propyl)-8-methoxy-2,3,4,5-tetrahydro-1H-3-benzazepin-7-ylamino]-pyrimidin-4-ylamino}-benzenesulfonyl)-pyrrolidin-3-ol], for which the values for the IC50 in test [1] and in test [2] were < 100 nM and > 10000 nM, respectively.

For `COc1cc2c(cc1Nc1ncc(Cl)c(N[C@H]3[C@@H](C(N)=O)[C@@H]4C=C[C@H]3C4)n1)CCN(C[C@H](C)O)CC2` [Example 1558, (1S,2S,3R,4R)-3-{5-Chloro-2-[3-((S)-2-hydroxy-propyl)-8-methoxy-2,3,4,5-tetrahydro-1H-3-benzazepin-7-ylamino]-pyrimidin-4-ylamino}-bicyclo[2.2.1]hept-5-ene-2-carboxylic acid amide], the IC50 was < 100 nM in test [1] and > 10000 nM in test [2].

Turning to `COc1cc2c(cc1Nc1ncc(Cl)c(N[C@H]3[C@@H](C(N)=O)[C@@H]4C=C[C@H]3C4)n1)CCN(C[C@@H](C)O)CC2` [Example 1559, (1S,2S,3R,4R)-3-{5-Chloro-2-[3-((R)-2-hydroxy-propyl)-8-methoxy-2,3,4,5-tetrahydro-1H-3-benzazepin-7-ylamino]-pyrimidin-4-ylamino}-bicyclo[2.2.1]hept-5-ene-2-carboxylic acid amide], the results for the IC50 in test [1] and in test [2] were < 100 nM and > 10000 nM, respectively.

In the case of `COc1cc2c(cc1Nc1ncc(Cl)c(N[C@H]3[C@@H](C(N)=O)[C@@H]4C=C[C@H]3C4)n1)CCN(CC(C)(C)O)CC2` [Example 1560, (1S,2S,3R,4R)-3-{5-Chloro-2-[3-(2-hydroxy-2-methyl-propyl)-8-methoxy-2,3,4,5-tetrahydro-1H-3-benzazepin-7-ylamino]-pyrimidin-4-ylamino}-bicyclo[2.2.1]hept-5-ene-2-carboxylic acid amide], the values for the IC50 in test [1] and in test [2] were < 100 nM and > 10000 nM, respectively.

As for `COc1cc2c(cc1Nc1ncc(Cl)c(Nc3ccccc3S(=O)(=O)N3CC[C@@H](O)C3)n1)CCN(CC(C)(C)O)CC2` [Example 1561, (R)-1-(2-{5-Chloro-2-[3-(2-hydroxy-2-methyl-propyl)-8-methoxy-2,3,4,5-tetrahydro-1H-3-benzazepin-7-ylamino]-pyrimidin-4-ylamino}-benzenesulfonyl)-pyrrolidin-3-ol], the values for the IC50 in test [1] and in test [2] were < 100 nM and 1000 to 10000 nM, respectively.

Turning to `COc1cc2c(cc1Nc1ncc(Cl)c(Nc3ccccc3S(=O)(=O)N3CC[C@H](O)C3)n1)CCN(CC(C)(C)O)CC2` [Example 1562, (S)-1-(2-{5-Chloro-2-[3-(2-hydroxy-2-methyl-propyl)-8-methoxy-2,3,4,5-tetrahydro-1H-3-benzazepin-7-ylamino]-pyrimidin-4-ylamino}-benzenesulfonyl)-pyrrolidin-3-ol], the values for the IC50 in test [1] and in test [2] were < 100 nM and 100 to 1000 nM, respectively.

With `COc1cc2c(cc1Nc1ncc(Cl)c(Nc3ccccc3S(=O)(=O)N(C)C)n1)CCN(CC(C)(C)O)CC2` [Example 1563, 2-{5-Chloro-2-[3-(2-hydroxy-2-methyl-propyl)-8-methoxy-2,3,4,5-tetrahydro-1H-3-benzazepin-7-ylamino]-pyrimidin-4-ylamino}-N,N-dimethyl-benzenesulfonamide], the IC50 in test [1] was < 100 nM; in test [2], 1000 to 10000 nM.

`CN1C(=O)CCC(C)(C)c2cc(Nc3ncc(Cl)c(N[C@H]4[C@@H](C(N)=O)[C@@H]5C=C[C@H]4C5)n3)ccc21` [Example 1571, (1S,2S,3R,4R)-3-[5-Chloro-2-(1,5,5-trimethyl-2-oxo-2,3,4,5-tetrahydro-1H-benzo[b]azepin-7-ylamino)-pyrimidin-4-ylamino]-bicyclo[2.2.1]hept-5-ene-2-carboxylic acid amide]: the IC50 was < 100 nM in test [1] and 100 to 1000 nM in test [2].

With `CNC(=O)c1scc(C)c1Nc1nc(Nc2ccc3c(c2)C(C)(C)CCC(=O)N3)ncc1Cl` [Example 1572, 3-[5-Chloro-2-(5,5-dimethyl-2-oxo-2,3,4,5-tetrahydro-1H-benzo[b]azepin-7-ylamino)-pyrimidin-4-ylamino]-4-methyl-thiophene-2-carboxylic acid methyl amide], the IC50 in test [1] and in test [2] was 100 to 1000 nM each time.
